Key:
EGFR G719X/T790M = test: In vitro sensitivity of T790M acquired with an exon 18 point mutation; format: cell-based; settings: T790M acquired with an exon 18 point mutation (G719X/T790M)
Procedure: Thus, in certain aspects, the subject is determined to not have a mutation at EGFR C797 and/or T790, such as C797S and/or T790M. […] However, in certain aspects, L858R/T790M/C797S, Exon 19 deletion/T790M/C797s, and exon 20 insertions+ C797S or T790M mutants are resistant to EGFR TKIs.

[1] = biological target: T1, Ba/F3 cells expressing EGFR A767insASV (Homo sapiens, UniProt P00533, DUP767-769, cells depend on it); test: Cell viability (Cell Titer Glo), Ba/F3 cells expressing A767insASV; format: cell-based; settings: 72 hours of treatment, read-out: IC50 values, nM Average
T1 construct: A767insASV|N/A|N/A|Addgene #32066
T1 sequence (P00533 with tags, fused parts or gaps DUP767-769): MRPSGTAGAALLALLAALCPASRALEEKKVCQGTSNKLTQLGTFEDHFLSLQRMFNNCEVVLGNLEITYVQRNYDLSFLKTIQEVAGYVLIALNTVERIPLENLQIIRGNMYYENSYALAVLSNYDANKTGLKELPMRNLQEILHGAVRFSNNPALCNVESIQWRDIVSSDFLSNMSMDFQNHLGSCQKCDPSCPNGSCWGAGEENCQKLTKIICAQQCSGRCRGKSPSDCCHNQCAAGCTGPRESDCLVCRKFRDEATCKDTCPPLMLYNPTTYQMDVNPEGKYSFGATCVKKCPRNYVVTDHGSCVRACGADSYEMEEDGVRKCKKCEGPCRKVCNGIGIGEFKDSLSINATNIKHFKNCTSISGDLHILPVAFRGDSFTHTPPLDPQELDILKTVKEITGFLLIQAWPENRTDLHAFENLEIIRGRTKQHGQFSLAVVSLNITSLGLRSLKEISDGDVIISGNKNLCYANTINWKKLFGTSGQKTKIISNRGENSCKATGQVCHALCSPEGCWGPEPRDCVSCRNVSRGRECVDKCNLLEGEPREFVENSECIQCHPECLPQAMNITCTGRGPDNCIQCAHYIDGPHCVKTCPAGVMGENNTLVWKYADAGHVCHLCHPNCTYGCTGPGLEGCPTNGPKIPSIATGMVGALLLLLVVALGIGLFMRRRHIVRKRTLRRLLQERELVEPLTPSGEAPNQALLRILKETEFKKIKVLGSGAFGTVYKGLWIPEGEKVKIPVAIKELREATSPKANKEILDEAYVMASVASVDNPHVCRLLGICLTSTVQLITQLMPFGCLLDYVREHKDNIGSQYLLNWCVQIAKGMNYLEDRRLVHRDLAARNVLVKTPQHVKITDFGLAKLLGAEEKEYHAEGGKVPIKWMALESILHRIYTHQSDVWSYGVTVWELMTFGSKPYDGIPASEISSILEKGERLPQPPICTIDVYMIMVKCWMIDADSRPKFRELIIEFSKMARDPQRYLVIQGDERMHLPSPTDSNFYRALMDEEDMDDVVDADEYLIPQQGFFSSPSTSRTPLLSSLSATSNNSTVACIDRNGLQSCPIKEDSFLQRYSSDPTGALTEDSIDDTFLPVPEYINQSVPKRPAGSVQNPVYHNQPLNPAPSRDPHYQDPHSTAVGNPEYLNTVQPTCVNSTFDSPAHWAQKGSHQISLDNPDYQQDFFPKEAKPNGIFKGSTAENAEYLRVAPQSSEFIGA
Procedure: Cell viability was determined by the Cell Titer Glo assay.
Briefly, stable Ba/F3 cell lines were generated by retroviral transduction of Ba/F3 cell line for 12 hours. […] Three days after transduction, 2 μg/ml puromycin (Invitrogen) was added to the RPMI media. Cell lines were then grown in the absence of IL-3 for two weeks and cell viability was assessed every three days using the Cell Titer Glo assay (Progema).
Briefly, 2000-3000 cells per well were plated in 384-well plates (Greiner Bio-One) in technical triplicate. Cells were treated with seven different concentrations of tyrosine kinase inhibitors or vehicle alone at a final volume of 40 μL per well. After 3 days, 11 μL of Cell Titer Glo was added to each well. Plates were shaken for 15 minutes, and bioluminescence was determined using a FLUOstar OPTIMA multi-mode micro-plate reader (BMG LABTECH). Bioluminescence values were normalized to DMSO treated cells, and normalized values were plotted in GraphPad Prism using non-linear regression fit to normalized data with a variable slope.

## C=CC(=O)N1CCC(Oc2cc3c(Nc4ccc(Cl)c(Cl)c4F)ncnc3cc2OC)CC1 [Poziotinib, 1-[4-[4-(3,4-dichloro-2-fluoroanilino)-7-methoxyquinazolin-6-yl]oxypiperidin-1-yl]prop-2-en-1-one]
EGFR G719X/T790M
  sensitivity in vitro: remain sensitive
[1]
  GI50: 1.62 nM

Source: patent publication US20220175779A1, “COMPOUNDS AGAINST CANCER BEARING TYROSINE KINASE INHIBITOR RESISTANT EGFR MUTATIONS” (Board of Regents, The University of Texas System, priority 2019, published 2022)
